Reference: US10968212B2 (ACCUTAR BIOTECHNOLOGY INC., priority 2016, dated 2021)

What was measured:
[1] = system: MCF-7 tumors; assay: Tumor growth inhibition in MCF-7 breast cancer-derived mouse xenograft model; assay type: in vivo; settings: 10 mg/day, i.p., 3 weeks, BALB/c nude mice with MCF-7 tumors; FIG. 14A
Experimental: For the tumor growth inhibition study, female BALB/c nude mice (with supplemental 17-β estradiol) bearing MCF-7 tumors (mean tumor volume 211 mm^3) were i.p. treated with Accutar-153 (10 mg/day) in vehicle or by vehicle only for 3 weeks. Body weight and tumor volume (tumor volume=[length×width^2]/2) were monitored twice weekly. At the end of study, plasma, tumor tissues and organs (brain, liver, kidney) for each animal were collected for further analysis.
Female BALB/c nude mice (supplemented with 17-β estradiol) bearing MCF-7 tumors (mean tumor volume was 211 mm^3) were treated with the compound:
[drawing 197] (10 mg/day, i.p.) in vehicle, or by vehicle only, for 3 weeks. Body weight and tumor volume (tumor volume=[length×width^2]/2) were monitored twice weekly. At the end of study, plasma, tumor tissues and organs (brain, liver, kidney) for each animal were collected for further analysis. The tumor growth inhibition studies were performed twice.

[2] = molecular target: T1, Estrogen Receptor alpha (Homo sapiens, UniProt P03372); assay: Estrogen Receptor alpha degradation in MCF-7 cells (immunoblot, 20 hours); assay type: cell-based; settings: concentrations from 1 nM to 1 μM, FIGS. 3A and 3B
T1 construct: endogenous in cells; host or cells: MCF7 or LTED cells
T1 sequence (P03372 1-595): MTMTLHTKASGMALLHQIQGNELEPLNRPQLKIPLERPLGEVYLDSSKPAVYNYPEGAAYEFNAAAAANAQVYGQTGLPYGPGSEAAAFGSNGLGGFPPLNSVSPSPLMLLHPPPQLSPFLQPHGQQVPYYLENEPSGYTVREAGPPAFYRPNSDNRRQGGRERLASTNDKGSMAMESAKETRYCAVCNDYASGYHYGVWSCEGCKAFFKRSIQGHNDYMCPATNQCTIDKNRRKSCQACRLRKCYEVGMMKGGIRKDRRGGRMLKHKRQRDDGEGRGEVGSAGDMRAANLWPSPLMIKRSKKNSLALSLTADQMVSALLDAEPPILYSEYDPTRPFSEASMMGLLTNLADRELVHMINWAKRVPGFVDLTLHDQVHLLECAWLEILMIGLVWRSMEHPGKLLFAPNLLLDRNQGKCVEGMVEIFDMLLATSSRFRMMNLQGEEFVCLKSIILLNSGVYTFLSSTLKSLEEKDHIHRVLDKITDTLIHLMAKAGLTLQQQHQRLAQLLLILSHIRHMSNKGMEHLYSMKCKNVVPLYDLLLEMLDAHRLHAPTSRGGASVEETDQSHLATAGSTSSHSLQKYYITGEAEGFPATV
Experimental: MCF-7 cells were maintained in high glucose DMEM (Corning cellgro, 15-013-CM), supplemented with 10% FBS, 1× L-Glutamine (29.2 mg/mL) and 1× Penicillin Streptomycin (10,000 I.U./mL Penicillin; 10,000 μg/mL Streptomycin; Corning, 30-009-CI). The resulting MCF-7 cells were plated into a 24-well plate at 1×10^5 cells/well, and the following day, compound was added to the cell medium at various concentrations. After treating the cell medium with compound, the cell plates were incubated for 20 hours at 37° C. Upon cooling, cells were lysed by addition of SDS loading buffer. The resulting cell lysates were subjected to immunoblotting by standard protocol. with primary antibodies of mouse anti-human ERα monoclonal antibody (Santa Cruz Biotechnology Inc., #SC-8002) and 1:1000 goat anti-human actin polyclonal antibody (Santa Cruz Biotechnology Inc. #SC-1616). Western blot results visualized using picoLUCENT™ PLUS-HRP ECL (G Biosciences, 786-165) and LI-CORC digit imaging system.

Compound	tumor weight, treatment group versus control group [1]	degradation of Estrogen Receptor alpha compared with the control [2]
CC/C(=C(\c1ccc(O)cc1)c1ccc(OCCNC(=O)CCCCCCC(=O)N[C@H](C(=O)N2C[C@H](O)C[C@H]2C(=O)NCc2ccc(-c3scnc3C)cc2)C(C)(C)C)cc1)c1ccccc1	significant decrease in tumor weight	–
CC/C(=C(\c1ccccc1)c1ccc(OCCN(C)CCCCCCC(=O)N[C@H](C(=O)N2C[C@H](O)C[C@H]2C(=O)NCc2ccc(-c3scnc3C)cc2)C(C)(C)C)cc1)c1ccccc1 [Compound 4]	–	resulted in degradation of Estrogen Receptor alpha when compared with the control
